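Where inhibition never reached the appropriate level, the endpoint shown equals the highest concentration tested. Otherwise, values were interpolated linearly from a five-concentration, 48-hour dose response in 96-well plates. TGI: concentration producing complete growth inhibition.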
Assays:
Assay in all cases: DTP human tumour cell line panel, 48 h
LOX IMVI melanoma = system: LOX IMVI melanoma
MALME-3M melanoma = system: MALME-3M melanoma
SNB-75 CNS = system: SNB-75 CNS
NCI-H460 lung = system: NCI-H460 lung
RXF 393 renal = system: RXF 393 renal
SW-620 colon = system: SW-620 colon
M14 melanoma = system: M14 melanoma
MDA-MB-231 breast = system: MDA-MB-231 breast
NCI-H226 lung = system: NCI-H226 lung
SK-MEL-5 melanoma = system: SK-MEL-5 melanoma
MDA-N = system: MDA-N
HCT-15 colon = system: HCT-15 colon
COLO 205 colon = system: COLO 205 colon
PC-3 prostate = system: PC-3 prostate
NCI/ADR-RES ovarian = system: NCI/ADR-RES ovarian
A549 NSCLC = system: A549 NSCLC
OVCAR-5 ovarian = system: OVCAR-5 ovarian
SF-295 CNS = system: SF-295 CNS
786-0 renal = system: 786-0 renal
CAKI-1 renal = system: CAKI-1 renal
NCI-H23 lung = system: NCI-H23 lung
SK-OV-3 ovarian = system: SK-OV-3 ovarian
SNB-19 CNS = system: SNB-19 CNS
SF-268 CNS = system: SF-268 CNS
RPMI-8226 leukemia = system: RPMI-8226 leukemia
CCRF-CEM leukemia = system: CCRF-CEM leukemia
A498 renal = system: A498 renal
DU-145 prostate = system: DU-145 prostate
BT-549 breast = system: BT-549 breast
MCF7 breast = system: MCF7 breast
UO-31 renal = system: UO-31 renal
HL-60(TB) leukemia = system: HL-60(TB) leukemia
MDA-MB-435 = system: MDA-MB-435
OVCAR-4 ovarian = system: OVCAR-4 ovarian
HS 578T breast = system: HS 578T breast
HOP-92 NSCLC = system: HOP-92 NSCLC
EKVX NSCLC = system: EKVX NSCLC
UACC-257 melanoma = system: UACC-257 melanoma
SF-539 CNS = system: SF-539 CNS
SR leukemia = system: SR leukemia
SN12C renal = system: SN12C renal
KM12 colon = system: KM12 colon
U251 CNS = system: U251 CNS
K-562 leukemia = system: K-562 leukemia
IGROV1 ovarian = system: IGROV1 ovarian
SK-MEL-2 melanoma = system: SK-MEL-2 melanoma
T-47D breast = system: T-47D breast
TK-10 renal = system: TK-10 renal
HT29 colon = system: HT29 colon
HCT-116 colon = system: HCT-116 colon
ACHN renal = system: ACHN renal
OVCAR-3 ovarian = system: OVCAR-3 ovarian
OVCAR-8 ovarian = system: OVCAR-8 ovarian
HOP-62 NSCLC = system: HOP-62 NSCLC
NCI-H522 lung = system: NCI-H522 lung
MOLT-4 leukemia = system: MOLT-4 leukemia
SK-MEL-28 melanoma = system: SK-MEL-28 melanoma
HCC-2998 colon = system: HCC-2998 colon
UACC-62 melanoma = system: UACC-62 melanoma

SMILES: O=C(CC(=O)Nc1ccccc1Cl)NNC(c1cc(N=Nc2ccc(Br)cc2)ccc1O)P(O)O (stereo not drawn)
- TGI (LOX IMVI melanoma): 9.51 µM
- TGI (MALME-3M melanoma): > 10 µM
- TGI (SNB-75 CNS): 9.72 µM
- TGI (NCI-H460 lung): > 10 µM
- TGI (RXF 393 renal): > 10 µM
- TGI (SW-620 colon): > 10 µM
- TGI (M14 melanoma): 2.72 µM
- TGI (MDA-MB-231 breast): > 10 µM
- TGI (NCI-H226 lung): 6 µM
- TGI (SK-MEL-5 melanoma): 4.96 µM
- TGI (MDA-N): > 10 µM
- TGI (HCT-15 colon): > 10 µM
- TGI (COLO 205 colon): > 10 µM
- TGI (PC-3 prostate): > 10 µM
- TGI (NCI/ADR-RES ovarian): > 10 µM
- TGI (A549 NSCLC): > 10 µM
- TGI (OVCAR-5 ovarian): > 10 µM
- TGI (SF-295 CNS): > 10 µM
- TGI (786-0 renal): > 10 µM
- TGI (CAKI-1 renal): 6.71 µM
- TGI (NCI-H23 lung): > 10 µM
- TGI (SK-OV-3 ovarian): > 10 µM
- TGI (SNB-19 CNS): > 10 µM
- TGI (SF-268 CNS): > 10 µM
- TGI (RPMI-8226 leukemia): > 10 µM
- TGI (CCRF-CEM leukemia): 9.58 µM
- TGI (A498 renal): 7.87 µM
- TGI (DU-145 prostate): > 10 µM
- TGI (BT-549 breast): > 10 µM
- TGI (MCF7 breast): > 10 µM
- TGI (UO-31 renal): > 10 µM
- TGI (HL-60(TB) leukemia): 1.18 µM
- TGI (MDA-MB-435): > 10 µM
- TGI (OVCAR-4 ovarian): > 10 µM
- TGI (HS 578T breast): > 10 µM
- TGI (HOP-92 NSCLC): > 10 µM
- TGI (EKVX NSCLC): > 10 µM
- TGI (UACC-257 melanoma): > 10 µM
- TGI (SF-539 CNS): 5.89 µM
- TGI (SR leukemia): > 10 µM
- TGI (SN12C renal): > 10 µM
- TGI (KM12 colon): > 10 µM
- TGI (U251 CNS): > 10 µM
- TGI (K-562 leukemia): 6.78 µM
- TGI (IGROV1 ovarian): > 10 µM
- TGI (SK-MEL-2 melanoma): > 10 µM
- TGI (T-47D breast): > 10 µM
- TGI (TK-10 renal): > 10 µM
- TGI (HT29 colon): > 10 µM
- TGI (HCT-116 colon): 0.964 µM
- TGI (ACHN renal): > 10 µM
- TGI (OVCAR-3 ovarian): > 10 µM
- TGI (OVCAR-8 ovarian): 3.57 µM
- TGI (HOP-62 NSCLC): > 10 µM
- TGI (NCI-H522 lung): > 10 µM
- TGI (MOLT-4 leukemia): > 10 µM
- TGI (SK-MEL-28 melanoma): > 10 µM
- TGI (HCC-2998 colon): > 10 µM
- TGI (UACC-62 melanoma): 6.12 µM

SMILES: O=C(O)c1ccccc1C1CCCc2c1[nH]c1ccccc21 (stereo not drawn)
- TGI (LOX IMVI melanoma): > 100 µM
- TGI (MALME-3M melanoma): > 100 µM
- TGI (SNB-75 CNS): 59.3 µM
- TGI (NCI-H460 lung): > 100 µM
- TGI (RXF 393 renal): > 100 µM
- TGI (SW-620 colon): > 100 µM
- TGI (M14 melanoma): > 100 µM
- TGI (MDA-MB-231 breast): > 100 µM
- TGI (NCI-H226 lung): > 100 µM
- TGI (SK-MEL-5 melanoma): > 100 µM
- TGI (MDA-N): > 100 µM
- TGI (HCT-15 colon): > 100 µM
- TGI (COLO 205 colon): > 100 µM
- TGI (PC-3 prostate): > 100 µM
- TGI (NCI/ADR-RES ovarian): > 100 µM
- TGI (A549 NSCLC): > 100 µM
- TGI (OVCAR-5 ovarian): > 100 µM
- TGI (SF-295 CNS): > 100 µM
- TGI (786-0 renal): > 100 µM
- TGI (CAKI-1 renal): > 100 µM
- TGI (NCI-H23 lung): > 100 µM
- TGI (SK-OV-3 ovarian): > 100 µM
- TGI (SNB-19 CNS): > 100 µM
- TGI (SF-268 CNS): > 100 µM
- TGI (RPMI-8226 leukemia): > 100 µM
- TGI (CCRF-CEM leukemia): 76.2 µM
- TGI (A498 renal): 85.9 µM
- TGI (DU-145 prostate): > 100 µM
- TGI (BT-549 breast): > 100 µM
- TGI (MCF7 breast): > 100 µM
- TGI (UO-31 renal): > 100 µM
- TGI (HL-60(TB) leukemia): > 100 µM
- TGI (MDA-MB-435): > 100 µM
- TGI (OVCAR-4 ovarian): > 100 µM
- TGI (HS 578T breast): > 100 µM
- TGI (HOP-92 NSCLC): > 100 µM
- TGI (EKVX NSCLC): > 100 µM
- TGI (UACC-257 melanoma): > 100 µM
- TGI (SF-539 CNS): > 100 µM
- TGI (SR leukemia): > 100 µM
- TGI (SN12C renal): > 100 µM
- TGI (KM12 colon): > 100 µM
- TGI (U251 CNS): > 100 µM
- TGI (K-562 leukemia): > 100 µM
- TGI (IGROV1 ovarian): > 100 µM
- TGI (SK-MEL-2 melanoma): > 100 µM
- TGI (T-47D breast): 71 µM
- TGI (TK-10 renal): > 100 µM
- TGI (HT29 colon): > 100 µM
- TGI (HCT-116 colon): > 100 µM
- TGI (ACHN renal): > 100 µM
- TGI (OVCAR-3 ovarian): > 100 µM
- TGI (OVCAR-8 ovarian): > 100 µM
- TGI (HOP-62 NSCLC): > 100 µM
- TGI (NCI-H522 lung): > 100 µM
- TGI (MOLT-4 leukemia): > 100 µM
- TGI (SK-MEL-28 melanoma): > 100 µM
- TGI (HCC-2998 colon): > 100 µM
- TGI (UACC-62 melanoma): > 100 µM
